IC50 data for one compound are collected here from patent US20250302846A1, “ANTIBIOTIC COMPOSITION AND METHODS OF USE THEREOF” (THE REGENTS OF THE UNIVERSITY OF COLORADO A BODY CORPORATE, priority 2022, published 2025).

The test system of the assay is S. Typhimurium (SL1344 with sifB::gfp) in RAW 264.7 macrophages. Nature of the assay: SAFIRE assay: bacterial accumulation (GFP) in macrophages. It counts as cell-based. Particulars: Salmonella enterica, RAW264.7, 16 h, read-out: IC50 in SAFIRE. As to the method:
FIG. 1A-D. D66 is a small molecule that prevents S. Typhimurium replication and/or survival in macrophages. A). Structure of D66. B) RAW264.7 macrophage-like cells were infected with S. Typhimurium harboring a chromosomal sifB: : gfp reporter, treated with DMSO or D66 at two hours after infection, and monitored for bacterial accumulation (GFP+Macrophage Area) over 16 hours using the SAFIRE (Screen for Anti-infectives using Fluorescence microscopy of Intracellular Enterobacteriaceae) assay. The IC50 value is indicated. Mean and SD of biological duplicates with technical duplicates across 9 dilutions of D66. C, D) CFU assays were performed with RAW264.7 or HeLa cells infected with S. Typhimurium SL1344 or 14028 for two hours and treated for 16 hours with DMSO or 1.5-fold dilutions of D66, prior to lysis and plating for CFU. Symbols on the Y-axes are the CFU value from DMSO-treated samples. […]
SAFIRE and CFU assays: SAFIRE assays were performed with RAW 264.7 (TIB-71) macrophages seeded at […] in 100 μL of complete DMEM in 96-well tissue culture plates (Greiner, 655180) and incubated at 37° C. with 5% CO2. […] After 16 hours of treatment, samples were imaged on a spinning disk confocal microscope, and a MATLAB algorithm calculated bacterial accumulation (GFP fluorescence) within macrophages, as defined by DAPI (DNA) and MitoTracker Red, a vital dye for mitochondrial voltage. […]

The structures appear in SMILES notation.

As to `O=C(Nc1cc(Cl)cc(Cl)c1)N1CCCN(Cc2ccccc2)CC1` [D66], the IC50 worked out at 6 ± 0.5 µM.

What is called IC50 is the concentration that inhibits the measured activity by half.
